According to US6177253A, “Screening methods for the identification of anti-HIV compounds employing a cyclosporine-specific monoclonal antibody that cross-reacts with HIV-1 p24” (priority 1998, dated 2001):
Entries after “also recorded” stand apart in the source; their conditions may differ.

How the values were obtained:
[1] = test system: R575; assay: Inhibition RIA of [3H]CsA binding to rabbit anti-cyclosporine antibodies R575; conditions: for affinity group for the rabbit antibodies: inhibition RIA, in words; for IC50: read-out: IC50 = Concentration for 50% inhibition, inhibition of [3H] dihydro CsA binding to rabbit antibody R575
Procedure: Serum antibodies were detected by a modification of the published radioimmunoassay (5, 12). […] Binding by diluted preimmune serum was used as a control. Free and bound ligand were separated with charcoal supplied by Sandoz according to their procedure. […] The cyclosporin derivatives were dissolved in 100% ethanol at a concentration of 5.0 mg/ml, stored at -20° C., and diluted to final concentrations of 0.27 nM to 2.7 μM in Sandoz buffer B for the inhibition experiments.

[2] = test system: C4 2.2; assay: ELISA inhibition by singly modified Cs-derivatives, McAb C4 2.2; type: binding, BALB/c mice; conditions: group V; McAb binds selectively to Thr^2 -Cs-BSA coating
Procedure: (§1) A second ELISA Procedure used conjugates of D-Lys^8 -Cs-BSA and Thr^2 -Cs-BSA for coating (Queeniaux et al., 1987b). An indirect detection system consisting of rabbit anti-mouse Ig followed by alkaline phosphates-conjugated goat anti-rabbit IgG was performed as previously described (Queenlaux et al., 1987b).
(§2) The binding of the 22 McAbs to these two Cs-BSA conjugates was also found to correlate well with their fine specificity patterns, as characterized with a set of 28-36 Cs derivatives. Typical ELISA curves showing McAb binding either to D-Lys^8 -Cs-BSA (panel A) or to Thr^2 -Ca-BSA (panel B) and inhibited by Cs or Cs derivatives are shown in FIGS. 8A-8B, D-Lys^8 -Cs-BSA was subsequently used for coating in the inhibition experiments, except for those McAbs binding selectively to Thr^2 -Cs-BSA (see Table 4 and FIGS. 7A-7C). An example of the binding of 26 Cs derivatives by McAbs belonging to each of the five specificity groups mentioned above is reported in Table 5. The results are expressed as the difference of IC50 (in log10) between the Cs derivatives and Cs. All Cs-derivatives used in this study were selected for having a conserved peptide ring conformation compared with CsA (as determined in NMR or X-ray diffraction).

[3] = test system: B11 1.4; assay: ELISA inhibition by singly modified Cs-derivatives, McAb B11 1.4; type: binding, BALB/c mice; conditions: group IV; D-Lys^8 -Cs-BSA coating
Procedure: as §1, §2

[4] = test system: G7 1.1; assay: ELISA inhibition by singly modified Cs-derivatives, McAb G7 1.1; type: binding, BALB/c mice; conditions: group I; McAb binds selectively to Thr^2 -Cs-BSA coating
Procedure: as §1, §2

[5] = test system: H6 1.5; assay: ELISA inhibition by singly modified Cs-derivatives, McAb H6 1.5; type: binding, BALB/c mice; conditions: group III; D-Lys^8 -Cs-BSA coating
Procedure: as §1, §2

[6] = test system: H4 1.3; assay: ELISA inhibition by singly modified Cs-derivatives, McAb H4 1.3; type: binding, BALB/c mice; conditions: group II; D-Lys^8 -Cs-BSA coating
Procedure: as §1, §2

[7] = single break in a peptide bond by N O shift; cited from earlier work

For `C/C=C/C[C@@H](C)[C@@H](O)[C@H]1C(=O)N[C@@H]([C@@H](C)O)C(=O)N(C)CC(=O)N(C)[C@@H](CC(C)C)C(=O)N[C@@H](C(C)C)C(=O)N(C)[C@@H](CC(C)C)C(=O)N[C@@H](C)C(=O)N[C@H](C)C(=O)N(C)[C@@H](CC(C)C)C(=O)N(C)[C@@H](CC(C)C)C(=O)N(C)[C@@H](C(C)C)C(=O)N1C` [CsC], the “affinity group for the rabbit antibodies” value [1] was “Moderate affinities”, the “affinity group for the rabbit antibodies” value ([1]; listed as CSC) was “moderate affinities” and the IC50 [1] was 11.5 nM.
For `C/C=C/C[C@@H](C)[C@@H](O)[C@H]1C(=O)N[C@@H](C(C)C)C(=O)N(C)CC(=O)N(C)[C@@H](CC(C)C)C(=O)N[C@@H](C(C)C)C(=O)N(C)[C@@H](CC(C)C)C(=O)N[C@@H](C)C(=O)N[C@H](C)C(=O)N(C)[C@@H](CC(C)C)C(=O)N(C)[C@@H](CC(C)C)C(=O)N(C)[C@@H](C(C)C)C(=O)N1C` [CsD], the “affinity group for the rabbit antibodies” value [1] was “high affinity; also recorded: bind best” and the IC50 [1] was 4.3 nM.
For `C/C=C/C[C@@H](C)[C@@H](O)[C@H]1C(=O)N[C@@H](CC)C(=O)N(C)CC(=O)N(C)[C@@H](CC(C)C)C(=O)N(C)[C@@H](CC(C)C)C(=O)N(C)[C@@H](CC(C)C)C(=O)N[C@@H](C)C(=O)N[C@H](C)C(=O)N(C)[C@@H](CC(C)C)C(=O)N(C)[C@@H](CC(C)C)C(=O)N(C)[C@@H](C(C)C)C(=O)N1C` [Val^5 MeLeu], the “log10 difference in the concentrations of Cs-derivatives and unmodified Cs required to achieve 50% inhibition in ELISA, McAb C4 2.2” value [2] was < 0.0 log10, the “log10 difference in the concentrations of Cs-derivatives and unmodified Cs required to achieve 50% inhibition in ELISA, McAb B11 1.4” value [3] was 0.0 log10 and the “log10 difference in the concentrations of Cs-derivatives and unmodified Cs required to achieve 50% inhibition in ELISA, McAb G7 1.1” value [4] was 1.0 log10. For the same compound, the “log10 difference in the concentrations of Cs-derivatives and unmodified Cs required to achieve 50% inhibition in ELISA, McAb H6 1.5” value [5] was 0.3 log10 and the “log10 difference in the concentrations of Cs-derivatives and unmodified Cs required to achieve 50% inhibition in ELISA, McAb H4 1.3” value [6] was 1.2 log10.
In the case of `C/C=C/C[C@@H](C)[C@@H](O)[C@H]1C(=O)N[C@@H](CC)C(=O)N(C)CC(=O)N(C)[C@@H](CC(C)C)C(=O)N[C@@H](CCSC)C(=O)N(C)[C@@H](CC(C)C)C(=O)N[C@@H](C)C(=O)N[C@H](C)C(=O)N(C)[C@@H](CC(C)C)C(=O)N(C)[C@@H](CC(C)C)C(=O)N(C)[C@@H](C(C)C)C(=O)N1C` [Val^5 Met], the “log10 difference in the concentrations of Cs-derivatives and unmodified Cs required to achieve 50% inhibition in ELISA, McAb C4 2.2” value [2] is reported as < 0.0 log10, the “log10 difference in the concentrations of Cs-derivatives and unmodified Cs required to achieve 50% inhibition in ELISA, McAb B11 1.4” value [3] is reported as 0.0 log10 and the “log10 difference in the concentrations of Cs-derivatives and unmodified Cs required to achieve 50% inhibition in ELISA, McAb G7 1.1” value [4] is reported as < 0.0 log10. The “log10 difference in the concentrations of Cs-derivatives and unmodified Cs required to achieve 50% inhibition in ELISA, McAb H6 1.5” value [5] was < 0.0 log10 and the “log10 difference in the concentrations of Cs-derivatives and unmodified Cs required to achieve 50% inhibition in ELISA, McAb H4 1.3” value [6] was 1.5 log10.
In the case of `C/C=C/C[C@@H](C)[C@@H](O)[C@H]1C(=O)N[C@@H](CCC)C(=O)N(C)CC(=O)N(C)[C@@H](CC(C)C)C(=O)N[C@@H](CCC)C(=O)N(C)[C@@H](CC(C)C)C(=O)N[C@@H](C)C(=O)N[C@H](C)C(=O)N(C)[C@@H](CC(C)C)C(=O)N(C)[C@@H](CC(C)C)C(=O)N(C)[C@@H](C(C)C)C(=O)N1C` [Val^5 NVa^2, Nva^5], the “log10 difference in the concentrations of Cs-derivatives and unmodified Cs required to achieve 50% inhibition in ELISA, McAb C4 2.2” value [2] is reported as 0.1 log10, the “log10 difference in the concentrations of Cs-derivatives and unmodified Cs required to achieve 50% inhibition in ELISA, McAb B11 1.4” value [3] is reported as 0.2 log10 and the “log10 difference in the concentrations of Cs-derivatives and unmodified Cs required to achieve 50% inhibition in ELISA, McAb G7 1.1” value [4] is reported as 0.5 log10. For the same compound, the “log10 difference in the concentrations of Cs-derivatives and unmodified Cs required to achieve 50% inhibition in ELISA, McAb H6 1.5” value [5] was 0.2 log10 and the “log10 difference in the concentrations of Cs-derivatives and unmodified Cs required to achieve 50% inhibition in ELISA, McAb H4 1.3” value [6] was 1.2 log10.
For `C/C=C/C[C@@H](C)[C@@H](O)[C@H]1C(=O)N[C@@H](CC)C(=O)N(C)CC(=O)N(C)[C@@H](CC(C)C)C(=O)N[C@@H](C(C)C)C(=O)N(C)[C@@H](CC(C)C)C(=O)N[C@@H](C)C(=O)N[C@H](C)C(=O)N(C)[C@@H](CC(C)C)C(=O)N(C)[C@@H](CC(C)C)C(=O)N(C)[C@@H]([C@@H](C)CC)C(=O)N1C` [compound 032], the “affinity group for the rabbit antibodies” value [1] was “high affinity; also recorded: bind best” and the IC50 [1] was 7 nM.
For `C/C=C/C[C@@H](C)[C@@H](O)[C@H]1C(=O)N[C@@H](CC)C(=O)N(C)CC(=O)N(C)[C@@H](CC(C)C)C(=O)N[C@@H](C(C)C)C(=O)N(C)[C@H](C)C(=O)N[C@@H](C)C(=O)N[C@H](C)C(=O)N(C)[C@@H](CC(C)C)C(=O)N(C)[C@@H](CC(C)C)C(=O)N(C)[C@@H](C(C)C)C(=O)N1C` [compound 039], the “affinity group for the rabbit antibodies” value [1] was “Moderate affinities” and the IC50 [1] was 18 nM.
In the case of `C/C=C/C[C@@H](C)[C@@H](OC(C)=O)[C@H]1C(=O)N[C@@H](CC)C(=O)N(C)CC(=O)N(C)[C@@H](CC(C)C)C(=O)N[C@@H](C(C)C)C(=O)N(C)[C@@H](CC(C)C)C(=O)N[C@@H](C)C(=O)N[C@H](C)C(=O)N(C)[C@@H](CC(C)C)C(=O)N(C)[C@@H](CC(C)C)C(=O)N(C)[C@@H](C(C)C)C(=O)N1C` [compound 243], the “affinity group for the rabbit antibodies” value [1] is reported as “high affinity; also recorded: bind best” and the IC50 [1] is reported as 6 nM.
With `C/C=C/C[C@@H](C)[C@@H](O)[C@H]1C(=O)N[C@@H](CC)C(=O)N2CCC[C@H]2C(=O)N(C)[C@@H](CC(C)C)C(=O)N[C@@H](C(C)C)C(=O)N(C)[C@@H](CC(C)C)C(=O)N[C@@H](C)C(=O)N[C@H](C)C(=O)N(C)[C@@H](CC(C)C)C(=O)N(C)[C@@H](CC(C)C)C(=O)N(C)[C@@H](C(C)C)C(=O)N1C` [compound 582] the “affinity group for the rabbit antibodies” value [1] was “Moderate affinities” and the IC50 [1] was 12 nM.
For `C/C=C/C[C@@H](C)[C@@H](O)[C@H]1C(=O)N[C@@H]([C@@H](C)OC(C)=O)C(=O)N(C)CC(=O)N(C)[C@@H](CC(C)C)C(=O)N[C@@H](C(C)C)C(=O)N(C)[C@@H](CC(C)C)C(=O)N[C@@H](C)C(=O)N[C@H](C)C(=O)N(C)[C@@H](CC(C)C)C(=O)N(C)[C@@H](CC(C)C)C(=O)N(C)[C@@H](C(C)C)C(=O)N1C` [compound 665], the “affinity group for the rabbit antibodies” value [1] was “high affinity; also recorded: bind best” and the IC50 [1] was 4.8 nM.
In the case of `C/C=C/C[C@@H](C)[C@@H](O)[C@H]1C(=O)N[C@@H](CC)C(=O)N(C)CC(=O)N(C)[C@@H](CC(C)C)C(=O)N[C@@H](C(C)C)C(=O)N(C)[C@@H](CC(C)C)C(=O)N[C@@H](C)C(=O)N[C@H](COC(C)(C)C)C(=O)N(C)[C@@H](CC(C)C)C(=O)N(C)[C@@H](CC(C)C)C(=O)N(C)[C@@H](C(C)C)C(=O)N1C` [compound 717], the “affinity group for the rabbit antibodies” value [1] is reported as “inhibits very poorly; also recorded: low affinity”, the “inhibition of [^3 H] CsA binding obtainable” value ([1]; maximal inhibition) is reported as “more than 50%” and the IC50 [1] is reported as 2700 nM.
In the case of `C/C=C/C[C@@H](C)[C@H]1OC(=O)[C@H](C(C)C)N(C)C(=O)[C@H](CC(C)C)N(C)C(=O)[C@H](CC(C)C)N(C)C(=O)[C@@H](C)NC(=O)[C@H](C)NC(=O)[C@H](CC(C)C)N(C)C(=O)[C@H](C(C)C)NC(=O)[C@H](CC(C)C)N(C)C(=O)CN(C)C(=O)[C@H](CC)NC(=O)[C@H]1NC` [iso-CsA], the biological activity [7] is listed as “loss of activity”.
